The record followed here is patent US9468641B2, “Anti-inflammatory pharmaceutical composition comprising benzopyranyl tetracycles” (SEOUL NATIONAL UNIVERSITY R&DB FOUNDATION, priority 2014, dated 2016).

The test system of this experiment is BV-2 cells. Briefly: Griess assay of LPS-induced nitrite release in BV-2 cells. It counts as cell-based. Conditions: BV-2 cells, Griess assay; expressed as percentages of the nitrite level produced upon DMSO treatment (100%). As to the method:
Cells increase the secretion of nitrite when induced to be inflammatory, but decrease the secretion of nitrite in the presence of an anti-inflammatory agent. […] Cells were treated with the compounds in the absence or presence of 100 ng/mL LPS (lipopolysaccharide). After 24 hrs of incubation, the cell culture media were reacted with Griess reagent (0.1% naphthylethylenediamine dihydrochloride and 1% sulfanilamide in 2% phosphoric acid). Absorbance was measured at 550 nm using a microplate reader, and the level of nitrite was estimated by comparison with a sodium nitrite standard curve.
In general terms: Griess reagent forms a coloured azo dye with nitrite.

Take `CC1(C)Oc2cc(O)ccc2C2C1=CCn1c(=O)n(C3CCCCC3)c(=O)n12` (centres unmarked) [Chemical Formula 3]: the “NO inhibition (%)” value stood at 38.0%.
For `Cn1c(=O)n2n(c1=O)C1C(=CC2)C(C)(C)Oc2cc(O)ccc21` (centres unmarked) [Chemical Formula 4] the value was 75.0%; for `CC1(C)Oc2cc(O)ccc2C2C1=CCn1c(=O)n(Cc3ccccc3)c(=O)n12` (centres unmarked) [Chemical Formula 5], 63.0%.
`Cc1ccc(-n2c(=O)n3n(c2=O)C2C(=CC3)C(C)(C)Oc3cc(O)ccc32)cc1` (centres unmarked) [Chemical Formula 6]: the “NO inhibition (%)” value was determined as 41.8%.
As for `CC1(C)Oc2cc(O)ccc2C2C1=CCn1c(=O)n(-c3ccc(C(C)(C)C)cc3)c(=O)n12` (centres unmarked) [Chemical Formula 7], the “NO inhibition (%)” value worked out at 92.1%.
For `COc1ccc(-n2c(=O)n3n(c2=O)C2C(=CC3)C(C)(C)Oc3cc(O)ccc32)cc1` (centres unmarked) [Chemical Formula 8] the value was 77.7%.
For `COc1cccc(-n2c(=O)n3n(c2=O)C2C(=CC3)C(C)(C)Oc3cc(O)ccc32)c1` (centres unmarked) [Chemical Formula 9] the value was 90.8%; for `CC1(C)Oc2cc(O)ccc2C2C1=CCn1c(=O)n(-c3ccc(F)cc3)c(=O)n12` (centres unmarked) [Chemical Formula 10], 76.4%.
The figure for `CC1(C)Oc2cc(O)ccc2C2C1=CCn1c(=O)n(-c3ccccc3I)c(=O)n12` (centres unmarked) [Chemical Formula 11] is 55.2%; for `CC1(C)Oc2cc(O)ccc2C2C1=CCn1c(=O)n(-c3cccc([N+](=O)[O-])c3)c(=O)n12` (centres unmarked) [Chemical Formula 12] it is 70.4%; for `O=c1n(-c2ccccc2)c(=O)n2n1CC=C1C2c2ccc(O)cc2OC12CCCC2` (centres unmarked) [Chemical Formula 13] it is 70.4%.
For `O=c1n(C2CCCCC2)c(=O)n2n1CC=C1C2c2ccc(O)cc2OC12CCCC2` (centres unmarked) [Chemical Formula 14], the “NO inhibition (%)” value is 48.8%.
Turning to `Cn1c(=O)n2n(c1=O)C1C(=CC2)C2(CCCC2)Oc2cc(O)ccc21` (centres unmarked) [Chemical Formula 15], the “NO inhibition (%)” value worked out at 41.4%.
For `O=c1n(Cc2ccccc2)c(=O)n2n1CC=C1C2c2ccc(O)cc2OC12CCCC2` (centres unmarked) [Chemical Formula 16] the value was 53.2%.
In the case of `Cc1ccc(-n2c(=O)n3n(c2=O)C2C(=CC3)C3(CCCC3)Oc3cc(O)ccc32)cc1` (centres unmarked) [Chemical Formula 17], the “NO inhibition (%)” value is listed as 72.1%.
`CC(C)(C)c1ccc(-n2c(=O)n3n(c2=O)C2C(=CC3)C3(CCCC3)Oc3cc(O)ccc32)cc1` (centres unmarked) [Chemical Formula 18]: the “NO inhibition (%)” value was found to be 99.7%.
Take `COc1ccc(-n2c(=O)n3n(c2=O)C2C(=CC3)C3(CCCC3)Oc3cc(O)ccc32)cc1` (centres unmarked) [Chemical Formula 19]: the “NO inhibition (%)” value is on record as 58.3%.
Regarding `COc1cccc(-n2c(=O)n3n(c2=O)C2C(=CC3)C3(CCCC3)Oc3cc(O)ccc32)c1` (centres unmarked) [Chemical Formula 20], the “NO inhibition (%)” value worked out at 63.0%.
In the case of `O=c1n(-c2ccc(F)cc2)c(=O)n2n1CC=C1C2c2ccc(O)cc2OC12CCCC2` (centres unmarked) [Chemical Formula 21], the “NO inhibition (%)” value worked out at 58.7%.
`O=c1n(-c2ccccc2I)c(=O)n2n1CC=C1C2c2ccc(O)cc2OC12CCCC2` (centres unmarked) [Chemical Formula 22]: the “NO inhibition (%)” value is 67.1%.
For `O=c1n(-c2cccc([N+](=O)[O-])c2)c(=O)n2n1CC=C1C2c2ccc(O)cc2OC12CCCC2` (centres unmarked) [Chemical Formula 23] the value was 81.5%; for `CC1(C)Oc2cc(O)ccc2C2C1=CCn1c(=O)n(-c3ccc(Cl)cc3)c(=O)n12` (centres unmarked) [Chemical Formula 24], 22.3%; for `O=c1n(-c2ccc(Cl)cc2)c(=O)n2n1CC=C1C2c2ccc(O)cc2OC12CCCC2` (centres unmarked) [Chemical Formula 25], 44.0%.
The figure for `CC1(C)Oc2cc(O)ccc2C2C1=CCn1c(=O)n(-c3ccccc3Cl)c(=O)n12` (centres unmarked) [Chemical Formula 26] is 57.1%.
For `O=c1n(-c2ccccc2Cl)c(=O)n2n1CC=C1C2c2ccc(O)cc2OC12CCCC2` (centres unmarked) [Chemical Formula 27] the value was 44.8%; for `CC1(C)Oc2cc(O)ccc2C2C1=CCn1c(=O)n(-c3ccc(Br)cc3)c(=O)n12` (centres unmarked) [Chemical Formula 28], 58.4%.
Take `O=c1n(-c2ccc(Br)cc2)c(=O)n2n1CC=C1C2c2ccc(O)cc2OC12CCCC2` (centres unmarked) [Chemical Formula 29]: the “NO inhibition (%)” value amounted to 44.0%.
For `Cn1c(=O)n2ccc3c(n2c1=O)-c1ccc(O)cc1OC3(C)C` [Chemical Formula 31] the value was 12.1%; for `CC1(C)Oc2cc(O)ccc2C2C1C=Cn1c(=O)n(-c3ccccc3)c(=O)n12` (centres unmarked) [Chemical Formula 32], 24.9%; for `O=c1n(-c2ccccc2)c(=O)n2n1CCC1C2c2ccc(O)cc2OC12CCCC2` (centres unmarked) [Chemical Formula 33], 41.8%.
The figure for `COc1cccc(-n2c(=O)n3n(c2=O)C2c4ccc(O)cc4OC(C)(C)C2C=C3)c1` (centres unmarked) [Chemical Formula 34] is 4.9%; for `CC1(C)Oc2ccccc2C2C1=CCn1c(=O)n(-c3ccccc3)c(=O)n12` (centres unmarked) [Chemical Formula 35] it is 1.2%.
For `COc1ccc2c(c1)OC(C)(C)C1=CCn3c(=O)n(-c4ccccc4)c(=O)n3C12` (centres unmarked) [Chemical Formula 36] the value was 3.2%; for `CCOC(=O)CCC1(C)Oc2cc(O)ccc2C2C1=CCn1c(=O)n(-c3ccccc3)c(=O)n12` (centres unmarked) [Chemical Formula 39], 44.9%; for `CC1(C)Oc2cc(O)ccc2C2C1=CCn1c(=O)n(-c3ccc(C(F)(F)F)cc3)c(=O)n12` (centres unmarked) [Chemical Formula 47], 36.0%.
Take `CC1(C)Oc2cc(O)ccc2C2C1=CCn1c(=O)n(-c3ccc(C(=O)c4ccccc4)cc3)c(=O)n12` (centres unmarked) [Chemical Formula 48]: the “NO inhibition (%)” value turned out to be 65.5%.
For `COC(=O)CCC1(C)Oc2cc(O)ccc2C2C1=CCn1c(=O)n(-c3ccc(C)cc3)c(=O)n12` (centres unmarked) [Chemical Formula 49] the value was 63.2%; for `CCNC(=O)CCC1(C)Oc2cc(O)ccc2C2C1=CCn1c(=O)n(-c3ccc(C)cc3)c(=O)n12` (centres unmarked) [Chemical Formula 51], 6.2%.
